{
  "source": "patent US20250179037A1",
  "about": "(Jiangsu Jibeier Pharmaceutical Co., Ltd., priority 2021, published 2025)",
  "key": {"[1]": {"test_system": "mice leukopenia models (peripheral blood leukocytes)", "assay": "Cyclophosphamide-induced mice leukopenia model, leukocyte counts", "format": "in vivo, male Balb/C mice", "settings": "for Leukocyte Level, End of treatment: 30 mg/kg intragastric once daily for 28 days, Day 29; for Leukocyte Level, End of treatment / Leukocyte Level, Before modeling / Leukocyte Level, After modeling: X ± S; for Leukocyte Level, Before modeling / Leukocyte Level, After modeling: 30 mg/kg intragastric once daily; for Leukocyte Level, Before modeling: Day 7 after drug administration; for Leukocyte Level, After modeling: Day 15, cyclophosphamide 25 mg/kg i.p. Day 8 to Day 14; for effect on leucocyte level compared to the leucogen crystalline form C group / leucocyte levels after treatment, compared to the model control group: 30 mg/kg, after treatment, P<0.05", "procedure": "A total of 100 male Balb/C mice with the body weight ranging from 22 g to 24 g were randomly selected and randomly divided into the following five groups: the normal control group, the model control group, the leucogen crystalline form A group, the leucogen crystalline form B group, and the leucogen crystalline form C group, 20 mice in each group. In the leucogen crystalline forms A, B and C groups, the mice were intragastrically administered with 30 mg/kg once daily for a total of 28 days. In the normal control group and the model control group, the mice were administered with an equal volume of saline once daily for a total of 28 days. In the model control group and the leucogen groups, 25 mg/kg of cyclophosphamide was intraperitoneally injected in the mice at Day 8 to Day 14 respectively to establish mice leukopenia models. Blood samples were collected from the retro-orbital venous sinus of mice before modeling, after modeling, and at the end of drug administration (i.e., Day 7, Day 15, and Day 29 after drug administration) for leukocyte counts, respectively. The experimental data were statistically processed with the SPSS 17.0 software package, and expressed as mean±standard deviation (X±S), where P<0.05 indicated there was a statistical significance."}, "[2]": {"assay": "TGA/DSC test (thermostability)", "format": "physicochemical", "settings": "for thermostability (compared with crystalline form C): conclusion from TGA/DSC table", "description": "TGA and DSC Test Methods:\nTGA and DCS patterns were collected on TA Discovery TGA 5500 thermogravimetric analyzer and TA Discovery DSC 2500 differential scanning calorimeter, respectively."}, "[3]": {"assay": "Test on saturated solubility in water (HPLC)", "format": "physicochemical", "settings": "for solubility property (compared with crystalline form C): conclusion from water saturation solubility table; for Solubility in 1 h / Solubility in 2 h / Solubility in 18 h: 37° C.", "procedure": "Test on Saturated Solubility in Water:\n• Chromatographic column: KromasiL C18 4.6*250 mm, 5 m • Column temperature: 30° C. flow rate: 1.0 mL/min sample size: 20 μL detection wavelength: 210 nm • Mobile phase: acetonitrile-water-glacial acetic acid (42:58:0.3) • Formulation of control solution: 10 mg of leucogen as a control product was precisely weighed, put in a 100-mL measuring flask, dissolved with the mobile phase, and diluted to the scale to afford 100 μg/mL of mother solution, and the mother solution was subjected to 10-fold, 100-fold, and 1000-fold serial dilutions to afford solutions at the concentrations of 10 μg/mL, 1 μg/mL, and 0.1 μg/mL, respectively.\nFormulation of test solution: about 20 mg of 211118 batch (crystalline form A) and 211124 batch (crystalline form B) of the leucogen samples were weighed, each for 3 copies, and put in six 10-mL test tubes with stoppers respectively; 10 mL of water was added respectively; the test tubes were oscillated under the conditions of 37° C. and 100 r/min for 1 h, 2 h, and 18 h respectively; the resultants were filtered through 0.45-μm microporous filter membranes, and the filtrates were taken as the test solutions.\nThe control solution and the test solutions were tested under the above chromatographic conditions, separately. The area of the control solution was linearly regressed with its concentration. The saturated solubility in water was obtained from the peak areas of the test solutions."}, "[4]": {"settings": "listed as Leucogen crystalline form A"}, "[5]": {"settings": "listed as Leucogen crystalline form B"}, "[6]": {"settings": "water, 100 r/min, oscillated 1 h"}, "[7]": {"settings": "water, 100 r/min, oscillated 2 h"}, "[8]": {"settings": "water, 100 r/min, oscillated 18 h"}, "[9]": {"settings": "listed as Leucogen crystalline form C"}},
  "note": "Marks after values point to notes of the source that are not given here.",
  "data": [
    {"smiles": "CCOC(=O)C(c1ccccc1)C1N[C@H](C(=O)O)CS1", "note": "(some centres unmarked)", "values": [
      {"measurement": "Leukocyte Level, End of treatment", "setting": "[1]; [4]", "result": "9.23 ± 1.42*^Δ 10^9/L"},
      {"measurement": "Leukocyte Level, Before modeling", "setting": "[1]; [4]", "result": "9.92 ± 1.59 10^9/L"},
      {"measurement": "Leukocyte Level, After modeling", "setting": "[1]; [4]", "result": "3.31 ± 1.43 10^9/L"},
      {"measurement": "effect on leucocyte level compared to the leucogen crystalline form C group", "setting": "[1]", "result": "better effect"},
      {"measurement": "leucocyte levels after treatment, compared to the model control group", "setting": "[1]", "result": "significantly increased"},
      {"measurement": "TGA Weight Loss (%)", "setting": "[2]; 100° C.", "result": "3.07 (100° C.) %"},
      {"measurement": "thermostability (compared with crystalline form C)", "setting": "[2]", "result": "better than that of the crystalline form C"},
      {"measurement": "solubility property (compared with crystalline form C)", "setting": "[3]", "result": "better than that of the crystalline form C"},
      {"measurement": "solubility", "setting": "[3]; water, 37 °C, thermodynamic from solid", "result": "≥ 240", "unit": "µg/mL"},
      {"measurement": "solubility at 1 h", "setting": "[3]; water, 37 °C, thermodynamic from solid, 100 r/min, oscillated 1 h", "result": 115, "unit": "µg/mL"},
      {"measurement": "solubility at 2 h", "setting": "[3]; water, 37 °C, thermodynamic from solid, 100 r/min, oscillated 2 h", "result": 137, "unit": "µg/mL"},
      {"measurement": "solubility at 18 h", "setting": "[3]; water, 37 °C, thermodynamic from solid, 100 r/min, oscillated 18 h", "result": 241, "unit": "µg/mL"}
    ]},
    {"smiles": "CCOC(=O)C(c1ccccc1)C1N[C@H](C(=O)O)CS1", "note": "(single isomer, unassigned)", "values": [
      {"measurement": "Leukocyte Level, End of treatment", "setting": "[1]; [5]", "result": "8.98 ± 1.13*^Δ 10^9/L"},
      {"measurement": "Leukocyte Level, Before modeling", "setting": "[1]; [5]", "result": "9.63 ± 0.99 10^9/L"},
      {"measurement": "Leukocyte Level, After modeling", "setting": "[1]; [5]", "result": "3.46 ± 1.24 10^9/L"},
      {"measurement": "effect on leucocyte level compared to the leucogen crystalline form C group", "setting": "[1]", "result": "better effect"},
      {"measurement": "leucocyte levels after treatment, compared to the model control group", "setting": "[1]", "result": "significantly increased"},
      {"measurement": "TGA Weight Loss (%)", "setting": "[2]; 150° C.", "result": "0.46 (150° C.) %"},
      {"measurement": "thermostability (compared with crystalline form C)", "setting": "[2]", "result": "better than that of the crystalline form C"},
      {"measurement": "solubility property (compared with crystalline form C)", "setting": "[3]", "result": "better than that of the crystalline form C"},
      {"measurement": "solubility in water", "setting": "[3]; listed as crystalline form B of leucogen", "result": "≥ 256", "unit": "µg/mL"},
      {"measurement": "Solubility in 1 h", "setting": "[3]; [6]", "result": 161.68, "unit": "µg/mL"},
      {"measurement": "Solubility in 2 h", "setting": "[3]; [7]", "result": 177.41, "unit": "µg/mL"},
      {"measurement": "Solubility in 18 h", "setting": "[3]; [8]", "result": 256.62, "unit": "µg/mL"}
    ]},
    {"smiles": "CCOC(=O)C(c1ccccc1)C1N[C@H](C(=O)O)CS1", "note": "(single isomer, unassigned) [reference compound]", "values": [
      {"measurement": "Leukocyte Level, End of treatment", "setting": "[1]; [9]", "result": "6.05 ± 1.56* 10^9/L"},
      {"measurement": "Leukocyte Level, Before modeling", "setting": "[1]; [9]", "result": "9.98 ± 1.56 10^9/L"},
      {"measurement": "Leukocyte Level, After modeling", "setting": "[1]; [9]", "result": "3.32 ± 0.89 10^9/L"},
      {"measurement": "leucocyte levels after treatment, compared to the model control group", "setting": "[1]", "result": "significantly increased"},
      {"measurement": "TGA Weight Loss (%)", "setting": "[2]; 70° C.", "result": "3.54 (70° C.) %"},
      {"measurement": "Solubility in 1 h", "setting": "[3]; [6]", "result": 112.64, "unit": "µg/mL"},
      {"measurement": "Solubility in 2 h", "setting": "[3]; [7]", "result": 133.16, "unit": "µg/mL"},
      {"measurement": "Solubility in 18 h", "setting": "[3]; [8]", "result": 227.89, "unit": "µg/mL"}
    ]}
  ]
}
